{"source": "patent US12599572B2", "about": "“Solid lipid nanoparticles of curcumin” (priority 2018, dated 2026)", "key": {"Solubility of curcumin": {"assay": "Solubility of curcumin", "format": "physicochemical"}, "[1]": {"assay": "Pharmacokinetic studies, single oral dose", "format": "in vivo, Wistar Rats", "conditions": "rats, 100 mg/kg single oral dose", "protocol": "For in vivo pharmacokinetic studies, female Wistar Rats were used. The animals were divided into 3 groups (n=3). […] The blood samples (0.5 ml) were withdrawn from retro-orbital plexus at different time intervals and collected into microcentrifuge tubes containing EDTA. Plasma was separated by centrifuging the blood samples at 10000 rpm for 6 min at 5° C. After centrifugation, the plasma obtained was stored at −20° C. until analysis. […] To 50 μl of plasma samples in an eppendorf tube, 150 μl of methanol and 300 μl of acetonitrile:water (1:1) was added. The sample was vortexed for 5 min and centrifuged at 15,000 rpm to separate precipitated proteins. Supernatant was transferred to suitably labelled tubes. The sample was filtered through 0.2 μm syringe filter and was used for analysis using the developed Ultra high pressure liquid chromatography (UPLC) method. The pharmacokinetic parameters were calculated using non-compartmental model. The area under the concentration-time curve from time zero to time t (AUCo-t) was calculated using the trapezoidal method. Peak concentration (Cmax) and the time at which the peak concentration is achieved (Tmax), were obtained directly from the individual concentration-time profiles. All values were corrected for the spiked concentration. The area under the concentration-time curve from time zero to infinity was calculated by: AUCo-x=AUCo-+Ct/Ke, where Ct is the drug concentration observed at the last time and Ke is the apparent elimination rate constant obtained from the terminal slope of the individual concentration-time curves after logarithmic transformation of the concentration values and application of linear regression. AUMC was determined by plotting concentration*time (ct) versus time (t) using trapezoidal method. Mean residence time (MRT) was calculated by: MRT=AUMC/AUC."}, "[2]": {"conditions": "combined with piperine, rats (Shoba et al., 1998); cited from earlier work"}, "[3]": {"assay": "Degradation studies (hydrolytic stability at pH 1.2, 6.8, 7.4 and 9)", "format": "physicochemical", "conditions": "for k value: zero order", "protocol": "It was further diluted to 5 μg/ml with respective buffers (pH 1.2, pH 6.8, pH 7.4 and pH 9). In case of C-SLNaq, Iml dispersion was placed in a dialysis bag and dialyzed against methanol (100 ml) at room temperature for 45 minutes to remove unentrapped drug. […] The stock solution and sample solution were prepared in amber coloured volumetric flasks to avoid photodegradation. The solutions were prepared and incubated at 37° C. […] […] Presence of water quenches the fluorescent intensity of curcumin. The samples were thus analysed subsequently using the UV/Visible spectrophotometer at λmax425 nm. The absorbance read at zero time was considered as 100% and change in concentration and % degradation was determined accordingly.\nThe graph between concentration versus time, log concentration versus time and percent drug remaining versus time were plotted."}, "[4]": {"assay": "Photostability study (ICH)", "format": "physicochemical", "protocol": "The above samples were placed in photostability chamber and exposed to light providing illumination of not less than 1.2 million lux hours for 10 days. After 10 days the containers were withdrawn and […] evaluated for total drug content, entrapment efficiency, particle size, zeta-potential and PDI. Samples of free drug, […] and C-SLNbent were analysed for total drug content."}, "[5]": {"assay": "In-vitro release (Franz-diffusion cells, dialysis membrane)", "format": "physicochemical", "protocol": "Jacketed franz-diffusion cells were used for the determination of in-vitro release of free curcumin and curcumin from C-SLNaq. These cells consist of the donor and the receptor chamber between which dialysis membrane is positioned. The dialysis membrane was soaked in double distilled water for 12 h prior to use. The whole system was water jacketed and thermostatically controlled by an external circulating water bath at 37° C.±1° C. The used receptor media consisted of 50% ethanol in distilled water. […] The receptor media was stirred throughout the experiment, using a magnetic stirrer. Iml aliquots were withdrawn regularly from the receptor compartment at various times starting at 30 min and replaced by an equal volume of fresh receptor medium. The samples were analysed, immediately, spectrophotometrically at 425 nm."}}, "note": "Like-named read-outs stand apart in the source and are kept apart here."}
{"smiles": "COc1cc(C=CC(=O)CC(=O)C=Cc2ccc(O)c(OC)c2)ccc1O", "note": "[Free curcumin, 1,7-bis(4-hydroxy-3-methoxyphenyl)-1,6-hepadiene-3,5-dione]", "values": [{"measurement": "solubility", "setting": "Solubility of curcumin; 50% (v/v) ethanol, aqueous with cosolvent or surfactant or cyclodextrin", "value": 693, "unit": "µg/mL"}, {"measurement": "solubility", "setting": "Solubility of curcumin; water, read-out: aqueous solubility", "value": 0.6, "unit": "µg/mL"}, {"measurement": "solubility", "setting": "Solubility of curcumin; water, room temperature, read-out: Solubility in water", "value": "0.003 ± 0.002", "unit": "µg/mL"}, {"measurement": "AUC(0-inf)", "setting": "[1]; female, Wistar, rat, plasma", "value": 2.69, "unit": "ng·h/mL"}, {"measurement": "Cmax", "setting": "[1]; female, Wistar, rat, plasma", "value": 1.79, "unit": "ng/mL"}, {"measurement": "MRT", "setting": "[1]; female, Wistar, rat, plasma", "value": 2, "unit": "h"}, {"measurement": "Tmax", "setting": "[1]; female, Wistar, rat, plasma", "value": 2, "unit": "h"}, {"measurement": "AUMC0-∞", "setting": "[1]", "value": 5.38, "unit": "h^2*ng/ml"}, {"measurement": "increase in the oral bioavailability", "setting": "[2]", "value": 154, "unit": "%"}, {"measurement": "half-life at 5 μg/ml", "setting": "[3]; alkaline borate buffer pH 9, pH 9", "value": 0.669, "unit": "h"}, {"measurement": "half-life at 5 μg/ml", "setting": "[3]; buffer pH 1.2, pH 1.2", "value": 17.3, "unit": "h"}, {"measurement": "order of degradation kinetics", "setting": "[3]; investigated pH conditions (C-SLN: except pH 9)", "value": "zero order"}, {"measurement": "Percentage remaining", "setting": "[3]; pH 1.2, 0 h", "value": "100.00 ± 0.06", "unit": "%"}, {"measurement": "Percentage remaining", "setting": "[3]; pH 1.2, 0.08 h", "value": "89.23 ± 0.02", "unit": "%"}, {"measurement": "Percentage remaining", "setting": "[3]; pH 1.2, 0.25 h", "value": "88.29 ± 0.01", "unit": "%"}, {"measurement": "Percentage remaining", "setting": "[3]; pH 1.2, 0.5 h", "value": "85.60 ± 0.01", "unit": "%"}, {"measurement": "Percentage remaining", "setting": "[3]; pH 1.2, 1 h", "value": "87.24 ± 0.001", "unit": "%"}, {"measurement": "Percentage remaining", "setting": "[3]; pH 1.2, 2 h", "value": "72.37 ± 0.02", "unit": "%"}, {"measurement": "Percentage remaining", "setting": "[3]; pH 1.2, 3 h", "value": "68.74 ± 0.03", "unit": "%"}, {"measurement": "Percentage remaining", "setting": "[3]; pH 1.2, 4 h", "value": "62.76 ± 0.01", "unit": "%"}, {"measurement": "Percentage remaining", "setting": "[3]; pH 1.2, 5 h", "value": "61.01 ± 0.01", "unit": "%"}, {"measurement": "Percentage remaining", "setting": "[3]; pH 1.2, 6 h", "value": "53.40 ± 0.02", "unit": "%"}, {"measurement": "Percentage remaining", "setting": "[3]; pH 1.2, 24 h", "value": "15.76 ± 0.01", "unit": "%"}, {"measurement": "degradation", "setting": "[3]; pH 1.2, 24 h", "value": "≤ 85", "unit": "%"}, {"measurement": "degradation", "setting": "[3]; pH 1.2, upto 6 h", "value": "≤ 50", "unit": "%"}, {"measurement": "degradation", "setting": "[3]; pH 1.2 medium, 4h", "value": "~40", "unit": "%"}, {"measurement": "Percentage remaining", "setting": "[3]; pH 6.8, 0 h", "value": "100.00 ± 0.04", "unit": "%"}, {"measurement": "Percentage remaining", "setting": "[3]; pH 6.8, 0.08 h", "value": "94.93 ± 0.06", "unit": "%"}, {"measurement": "Percentage remaining", "setting": "[3]; pH 6.8, 0.25 h", "value": "87.63 ± 0.04", "unit": "%"}, {"measurement": "Percentage remaining", "setting": "[3]; pH 6.8, 0.5 h", "value": "81.95 ± 0.08", "unit": "%"}, {"measurement": "Percentage remaining", "setting": "[3]; pH 6.8, 1 h", "value": "79.72 ± 0.06", "unit": "%"}, {"measurement": "Percentage remaining", "setting": "[3]; pH 6.8, 2 h", "value": "66.73 ± 0.05", "unit": "%"}, {"measurement": "Percentage remaining", "setting": "[3]; pH 6.8, 3 h", "value": "62.68 ± 0.07", "unit": "%"}, {"measurement": "Percentage remaining", "setting": "[3]; pH 6.8, 4 h", "value": "57.81 ± 0.05", "unit": "%"}, {"measurement": "Percentage remaining", "setting": "[3]; pH 6.8, 5 h", "value": "43.61 ± 0.08", "unit": "%"}, {"measurement": "Percentage remaining", "setting": "[3]; pH 6.8, 6 h", "value": "23.12 ± 0.04", "unit": "%"}, {"measurement": "degradation", "setting": "[3]; pH 6.8, 6 h", "value": 77, "unit": "%"}, {"measurement": "Percentage remaining", "setting": "[3]; pH 6.8, 24 h", "value": "11.36 ± 0.04", "unit": "%"}, {"measurement": "degradation", "setting": "[3]; pH 6.8, 24 h", "value": 89, "unit": "%"}, {"measurement": "Percentage remaining", "setting": "[3]; pH 7.4, 0 h", "value": "100.0 ± 0.060", "unit": "%"}, {"measurement": "Percentage remaining", "setting": "[3]; pH 7.4, 0.08 h", "value": "96.33 ± 0.02", "unit": "%"}, {"measurement": "Percentage remaining", "setting": "[3]; pH 7.4, 0.25 h", "value": "93.81 ± 0.04", "unit": "%"}, {"measurement": "Percentage remaining", "setting": "[3]; pH 7.4, 0.5 h", "value": "84.17 ± 0.04", "unit": "%"}, {"measurement": "Percentage remaining", "setting": "[3]; pH 7.4, 1 h", "value": "75.92 ± 0.04", "unit": "%"}, {"measurement": "Percentage remaining", "setting": "[3]; pH 7.4, 2 h", "value": "67.20 ± 0.03", "unit": "%"}, {"measurement": "Percentage remaining", "setting": "[3]; pH 7.4, 3 h", "value": "61.01 ± 0.03", "unit": "%"}, {"measurement": "Percentage remaining", "setting": "[3]; pH 7.4, 4 h", "value": "49.08 ± 0.04", "unit": "%"}, {"measurement": "Percentage remaining", "setting": "[3]; pH 7.4, 5 h", "value": "40.60 ± 0.03", "unit": "%"}, {"measurement": "Percentage remaining", "setting": "[3]; pH 7.4, 6 h", "value": "24.31 ± 0.01", "unit": "%"}, {"measurement": "degradation", "setting": "[3]; pH 7.4, 6 h", "value": 75, "unit": "%"}, {"measurement": "Percentage remaining", "setting": "[3]; pH 7.4, 24 h", "value": "13.99 ± 0.01", "unit": "%"}, {"measurement": "degradation", "setting": "[3]; pH 7.4, 24 h", "value": 77, "unit": "%"}, {"measurement": "Percentage remaining", "setting": "[3]; pH 9, 0 h", "value": "100.00 ± 0.004", "unit": "%"}, {"measurement": "Percentage remaining", "setting": "[3]; pH 9, 0.08 h", "value": "82.59 ± 0.009", "unit": "%"}, {"measurement": "Percentage remaining", "setting": "[3]; pH 9, 0.25 h", "value": "61.43 ± 0.004", "unit": "%"}, {"measurement": "Percentage remaining", "setting": "[3]; pH 9, 0.5 h", "value": "32.76 ± 0.006", "unit": "%"}, {"measurement": "Percentage remaining", "setting": "[3]; pH 9, 1 h", "value": "20.48 ± 0.001", "unit": "%"}, {"measurement": "Percentage remaining", "setting": "[3]; pH 9, 2 h", "value": "15.70 ± 0.002", "unit": "%"}, {"measurement": "Percentage remaining", "setting": "[3]; pH 9, 3 h", "value": "9.90 ± 0.003", "unit": "%"}, {"measurement": "Percentage remaining", "setting": "[3]; pH 9, 4 h", "value": "2.39 ± 0.004", "unit": "%"}, {"measurement": "degradation", "setting": "[3]; pH 9, 4 h", "value": "approximately 98%"}, {"measurement": "half-life at 5 μg/ml", "setting": "[3]; phosphate buffer pH 6.8, pH 6.8", "value": 1.32, "unit": "h"}, {"measurement": "half-life at 5 μg/ml", "setting": "[3]; phosphate buffer pH 7.4, pH 7.4", "value": 9.4, "unit": "h"}, {"measurement": "k value", "setting": "[3]; pH 1.2", "value": 0.039}, {"measurement": "k value", "setting": "[3]; pH 6.8", "value": 0.52}, {"measurement": "k value", "setting": "[3]; pH 7.4", "value": 0.073}, {"measurement": "k value", "setting": "[3]; pH 9", "value": 0.95}, {"measurement": "TDC %", "setting": "[4]; Amber glass, 0 day", "value": "100.00 ± 0", "unit": "%"}, {"measurement": "TDC %", "setting": "[4]; Amber glass, 10 days", "value": "78.31 ± 7.1", "unit": "%"}, {"measurement": "TDC %", "setting": "[4]; Transparent, 0 day", "value": "100.00 ± 0", "unit": "%"}, {"measurement": "TDC %", "setting": "[4]; Transparent, 10 days", "value": "65.51 ± 7.5", "unit": "%"}, {"measurement": "degradation", "setting": "[4]; amber coloured containers, 10 days", "value": 21.7, "unit": "%"}, {"measurement": "degradation", "setting": "[4]; transparent containers, 10 days", "value": 35, "unit": "%"}, {"measurement": "order of release", "setting": "[5]", "value": "first order"}, {"measurement": "release model followed", "setting": "[5]", "value": "Hixon model"}, {"measurement": "time over which drug was released", "setting": "[5]; receptor 50% ethanol, 37° C.", "value": "≤ 8", "unit": "h"}]}
